Assay results reported in patent publication US4388311A, “Method for the induction of menses” (G. D. Searle & Co., priority 1982, dated 1983).
Values joined by “and” are separate entries in the source; they are usually repeats but may differ in a detail not shown here. Equal entries are not always repeated.

What was measured:
pregnancy in rats [1] = test: Termination of pregnancy in rats, compounds administered subcutaneously (Table 2); format: in vivo, rat
Description: (§1) The following tables list the results for a compound of Formula IV as compared with a control of previously known 2α-cyano-17β-hydroxy-3-oxo-4,4,17α-trimethylandrost-5-end(Cyanoketone) for termination of pregnancy.
^1 Compounds given subcutaneously in corn oil vehicle once daily on
days 10 through 13 of pregnancy. Serum for progesterone determination was
drawn on day 11 of pregnancy, 24 hours after the initial injection of
(§2) compound. The animals were autopsied on day 14 of pregnancy.
^2 Serum progesterone values determined by RIA at Interlab Associates

pregnancy in rats [2] = test: Pregnancy termination in rats, compounds administered intragastrically on day 10 of pregnancy (Table 3); format: in vivo, rat; details: autopsy day 14
Description: as §1
^1 Compounds were administered intragastrically once daily on days 10
of pregnancy in a vehicle consisting of PEG400, propylene glycol and 100
percent ethanol (50:40:10, v:v:v). Serum for progesterone determination
was drawn on day 11 of pregnancy, 24 hours after the initial injection of
as §2

[3] = 2 mg/kg/day subcutaneously in corn oil once daily days 10-13 of pregnancy, autopsy day 14
[4] = 4 mg/kg/day subcutaneously days 10-13 of pregnancy, serum day 11, 24 hours after initial injection
[5] = 4 mg/kg/day subcutaneously in corn oil once daily days 10-13 of pregnancy, autopsy day 14
[6] = 8 mg/kg/day subcutaneously days 10-13 of pregnancy, serum day 11, 24 hours after initial injection
[7] = 8 mg/kg/day subcutaneously in corn oil once daily days 10-13 of pregnancy, autopsy day 14
[8] = 16 mg/kg/day subcutaneously days 10-13 of pregnancy, serum day 11, 24 hours after initial injection
[9] = 16 mg/kg/day subcutaneously in corn oil once daily days 10-13 of pregnancy, autopsy day 14, 16 mg/kg/day
[10] = 32 mg/kg/day subcutaneously days 10-13 of pregnancy, serum day 11, 24 hours after initial injection
[11] = 32 mg/kg/day subcutaneously in corn oil once daily days 10-13 of pregnancy, autopsy day 14
[12] = 1 mg/kg intragastrically once on day 10 of pregnancy
[13] = 2 mg/kg intragastrically once on day 10 of pregnancy
[14] = 4 mg/kg intragastrically once on day 10 of pregnancy
[15] = 8 mg/kg intragastrically once on day 10 of pregnancy
[16] = 16 mg/kg intragastrically once on day 10 of pregnancy
[17] = 32 mg/kg intragastrically once on day 10 of pregnancy

CC1(C)C(=O)[C@H](C#N)C[C@@]2(C)C1=CC[C@@H]1[C@@H]2CC[C@@]2(C)[C@H]1CC[C@]2(C)O [Cyanoketone, 2α-cyano-17β-hydroxy-3-oxo-4,4,17α-trimethylandrost-5-end]
Adrenal Wt. mg + SE (pregnancy in rats [1]; [3]): 91.6 + 4.6 mg
Fetal Viability: Normal Fetuses/Implantation Sites (pregnancy in rats [1]; [3]): 94/103
Fetal Viability: Normal Fetuses/Implantation Sites (Percent) (pregnancy in rats [1]; [3]): 91%
Number of Rats Pregnant/Number of Rats Treated (pregnancy in rats [1]; [3]): 8/8
Number of Rats Pregnant/Number of Rats Treated (Percent) (pregnancy in rats [1]; [3]): 100%
Serum Progesterone (Percent Control) (pregnancy in rats [1]; [4]): 92 Percent Control
Serum Progesterone ng/ml + S.E. (pregnancy in rats [1]; [4]): 40.0 + 3.5 ng/ml
Adrenal Wt. mg + SE (pregnancy in rats [1]; [5]): 93.1 + 4.0 mg
Fetal Viability: Normal Fetuses/Implantation Sites (pregnancy in rats [1]; [5]): 27/87
Fetal Viability: Normal Fetuses/Implantation Sites (Percent) (pregnancy in rats [1]; [5]): 32%
Number of Rats Pregnant/Number of Rats Treated (pregnancy in rats [1]; [5]): 3/6
Number of Rats Pregnant/Number of Rats Treated (Percent) (pregnancy in rats [1]; [5]): 50%
Serum Progesterone (Percent Control) (pregnancy in rats [1]; [6]): 44 Percent Control
Serum Progesterone ng/ml + S.E. (pregnancy in rats [1]; [6]): 22.1 + 6.0 ng/ml
Adrenal Wt. mg + SE (pregnancy in rats [1]; [7]): 78.8 + 3.9 mg
Fetal Viability: Normal Fetuses/Implantation Sites (pregnancy in rats [1]; [7]): 36/119
Fetal Viability: Normal Fetuses/Implantation Sites (Percent) (pregnancy in rats [1]; [7]): 30%
Number of Rats Pregnant/Number of Rats Treated (pregnancy in rats [1]; [7]): 5/10
Number of Rats Pregnant/Number of Rats Treated (Percent) (pregnancy in rats [1]; [7]): 50%
Serum Progesterone (Percent Control) (pregnancy in rats [1]; [8]): 48 Percent Control
Serum Progesterone ng/ml + S.E. (pregnancy in rats [1]; [8]): 24.3 + 7.6 ng/ml
Serum Progesterone (Percent Control) (pregnancy in rats [1]; 16 mg/kg/day subcutaneously days 10-13 of pregnancy, serum day 11, determined by RIA at Interlab Associates (footnote 2)): 70 Percent Control
Serum Progesterone ng/ml + S.E. (pregnancy in rats [1]; 16 mg/kg/day subcutaneously days 10-13 of pregnancy, serum day 11, group whose values were determined by RIA at Interlab Associates (footnote 2)): 50.7 + 5.4 ng/ml
Adrenal Wt. mg + SE (pregnancy in rats [1]; [9]): 77.0 + 4.5 mg and 105.2 mg
Fetal Viability: Normal Fetuses/Implantation Sites (pregnancy in rats [1]; [9]): 26/103 and 11/94
Number of Rats Pregnant/Number of Rats Treated (pregnancy in rats [1]; [9]): 3/9 and 2/8
Number of Rats Pregnant/Number of Rats Treated (Percent) (pregnancy in rats [1]; [9]): 33% and 25%
Serum Progesterone (Percent Control) (pregnancy in rats [1]; [10]): 70 Percent Control
Serum Progesterone ng/ml + S.E. (pregnancy in rats [1]; [10]): 35.1 + 7.8 ng/ml
Adrenal Wt. mg + SE (pregnancy in rats [1]; [11]): 94.8 + 8.9 mg
Fetal Viability: Normal Fetuses/Implantation Sites (pregnancy in rats [1]; [11]): 15/63
Fetal Viability: Normal Fetuses/Implantation Sites (Percent) (pregnancy in rats [1]; [11]): 24%
Number of Rats Pregnant/Number of Rats Treated (pregnancy in rats [1]; [11]): 2/6
Number of Rats Pregnant/Number of Rats Treated (Percent) (pregnancy in rats [1]; [11]): 33%
Adrenal Wt. mg + SE (pregnancy in rats [2]; [12]): 55.8 + 4.1 mg
Fetal Viability: Normal Fetuses/Implantation Sites (pregnancy in rats [2]; [12]): 54/56
Fetal Viability: Normal Fetuses/Implantation Sites (Percent) (pregnancy in rats [2]; [12]): 96%
Number of Rats Pregnant/Number of Rats Treated (pregnancy in rats [2]; [12]): 5/5
Number of Rats Pregnant/Number of Rats Treated (Percent) (pregnancy in rats [2]; [12]): 100%
Adrenal Wt. mg + SE (pregnancy in rats [2]; [13]): 64.1 + 5.2 mg
Fetal Viability: Normal Fetuses/Implantation Sites (pregnancy in rats [2]; [13]): 56/77
Fetal Viability: Normal Fetuses/Implantation Sites (Percent) (pregnancy in rats [2]; [13]): 72%
Number of Rats Pregnant/Number of Rats Treated (pregnancy in rats [2]; [13]): 6/6
Number of Rats Pregnant/Number of Rats Treated (Percent) (pregnancy in rats [2]; [13]): 100%
Adrenal Wt. mg + SE (pregnancy in rats [2]; [14]): 75.9 + 6.1 mg
Fetal Viability: Normal Fetuses/Implantation Sites (pregnancy in rats [2]; [14]): 46/84
Fetal Viability: Normal Fetuses/Implantation Sites (Percent) (pregnancy in rats [2]; [14]): 55%
Number of Rats Pregnant/Number of Rats Treated (pregnancy in rats [2]; [14]): 4/7
Number of Rats Pregnant/Number of Rats Treated (Percent) (pregnancy in rats [2]; [14]): 57%
Fetal Viability: Normal Fetuses/Implantation Sites (pregnancy in rats [2]; [15]): 11/112
Fetal Viability: Normal Fetuses/Implantation Sites (Percent) (pregnancy in rats [2]; [15]): 10%
Number of Rats Pregnant/Number of Rats Treated (pregnancy in rats [2]; [15]): 1/9
Number of Rats Pregnant/Number of Rats Treated (Percent) (pregnancy in rats [2]; [15]): 11%
Adrenal Wt. mg + SE (pregnancy in rats [2]; [16]): 61.3 + 3.0 mg
Fetal Viability: Normal Fetuses/Implantation Sites (pregnancy in rats [2]; [16]): 8/108
Fetal Viability: Normal Fetuses/Implantation Sites (Percent) (pregnancy in rats [2]; [16]): 7%
Number of Rats Pregnant/Number of Rats Treated (pregnancy in rats [2]; [16]): 1/9
Number of Rats Pregnant/Number of Rats Treated (Percent) (pregnancy in rats [2]; [16]): 11%
Adrenal Wt. mg + SE (pregnancy in rats [2]; [17]): 60.3 + 1.6 mg
Fetal Viability: Normal Fetuses/Implantation Sites (pregnancy in rats [2]; [17]): 10/106
Fetal Viability: Normal Fetuses/Implantation Sites (Percent) (pregnancy in rats [2]; [17]): 9%
Number of Rats Pregnant/Number of Rats Treated (pregnancy in rats [2]; [17]): 1/10
Number of Rats Pregnant/Number of Rats Treated (Percent) (pregnancy in rats [2]; [17]): 10%
